Data reported in ChEMBL document CHEMBL1909046, “DrugMatrix in vitro pharmacology data”.

Key:
[1] = molecular target: Beta-3 adrenergic receptor (Homo sapiens, UniProt P13945); assay: DRUGMATRIX: Adrenergic beta3 radioligand binding (ligand: [125I] Cyanopindolol); assay type: cell membranes, HEK293, Membrane; conditions: Not Active = under 50% inhibition at 10 µM
[2] = DRUGMATRIX: Calcium Channel Type L, Dihydropyridine radioligand binding (ligand: [3H] Nitrendipine); assay type: cell membranes, Rattus norvegicus, Wistar, Cerebral cortex, Membrane; conditions: Not Active = under 50% inhibition at 10 µM
[3] = molecular target: D(3) dopamine receptor (Homo sapiens, UniProt P35462); assay: DRUGMATRIX: Dopamine D3 radioligand binding (ligand: [3H] Spiperone); assay type: cell membranes, CHO, Membrane
[4] = molecular target: T1, Endothelin-1 receptor (Homo sapiens, UniProt P25101); assay type: cell membranes, Membrane; conditions: cho-k1; further: in other assays of this panel Not Active means under 50% inhibition at 10 µM
T1 sequence (P25101 whole entry): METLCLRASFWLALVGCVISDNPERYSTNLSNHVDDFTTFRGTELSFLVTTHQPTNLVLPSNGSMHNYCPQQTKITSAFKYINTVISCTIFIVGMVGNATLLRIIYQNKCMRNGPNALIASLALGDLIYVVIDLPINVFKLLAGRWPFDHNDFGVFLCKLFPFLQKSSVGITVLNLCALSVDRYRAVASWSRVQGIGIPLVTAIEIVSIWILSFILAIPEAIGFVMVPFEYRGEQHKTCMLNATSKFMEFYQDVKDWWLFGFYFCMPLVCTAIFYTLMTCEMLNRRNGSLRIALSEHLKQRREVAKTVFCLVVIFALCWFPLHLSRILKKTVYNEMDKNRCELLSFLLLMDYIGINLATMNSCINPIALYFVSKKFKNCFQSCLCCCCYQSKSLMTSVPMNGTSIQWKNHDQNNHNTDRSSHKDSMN

[5] = molecular target: T2, Muscarinic acetylcholine receptor M4 (Homo sapiens, UniProt P08173); assay type: cell membranes, CHO-K1, Membrane; conditions: cho-k1; further: in other assays of this panel Not Active means under 50% inhibition at 10 µM
T2 sequence (P08173 whole entry): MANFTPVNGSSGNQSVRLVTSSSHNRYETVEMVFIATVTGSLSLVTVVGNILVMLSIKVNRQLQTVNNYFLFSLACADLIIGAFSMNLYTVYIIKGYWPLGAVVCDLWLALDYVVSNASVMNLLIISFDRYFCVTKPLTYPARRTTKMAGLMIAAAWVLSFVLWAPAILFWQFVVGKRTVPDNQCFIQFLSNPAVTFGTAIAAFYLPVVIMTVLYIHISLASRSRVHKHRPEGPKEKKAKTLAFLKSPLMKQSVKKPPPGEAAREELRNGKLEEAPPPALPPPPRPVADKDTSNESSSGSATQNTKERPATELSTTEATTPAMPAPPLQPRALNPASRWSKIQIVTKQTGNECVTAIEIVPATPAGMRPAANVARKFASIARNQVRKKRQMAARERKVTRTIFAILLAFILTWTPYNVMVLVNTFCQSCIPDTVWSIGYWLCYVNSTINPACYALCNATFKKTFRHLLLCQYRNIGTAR

Beta-3 adrenergic receptor, sequence (P13945 whole entry): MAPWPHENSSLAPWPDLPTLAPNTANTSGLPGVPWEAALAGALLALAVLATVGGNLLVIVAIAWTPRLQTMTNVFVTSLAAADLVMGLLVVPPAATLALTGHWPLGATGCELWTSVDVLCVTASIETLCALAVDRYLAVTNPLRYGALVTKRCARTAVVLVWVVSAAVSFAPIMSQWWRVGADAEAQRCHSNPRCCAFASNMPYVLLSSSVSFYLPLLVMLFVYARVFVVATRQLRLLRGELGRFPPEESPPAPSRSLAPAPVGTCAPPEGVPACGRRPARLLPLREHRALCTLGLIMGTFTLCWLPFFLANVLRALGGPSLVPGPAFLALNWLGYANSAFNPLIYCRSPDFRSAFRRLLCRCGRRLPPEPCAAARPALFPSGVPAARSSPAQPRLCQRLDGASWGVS
D(3) dopamine receptor, sequence (P35462 whole entry): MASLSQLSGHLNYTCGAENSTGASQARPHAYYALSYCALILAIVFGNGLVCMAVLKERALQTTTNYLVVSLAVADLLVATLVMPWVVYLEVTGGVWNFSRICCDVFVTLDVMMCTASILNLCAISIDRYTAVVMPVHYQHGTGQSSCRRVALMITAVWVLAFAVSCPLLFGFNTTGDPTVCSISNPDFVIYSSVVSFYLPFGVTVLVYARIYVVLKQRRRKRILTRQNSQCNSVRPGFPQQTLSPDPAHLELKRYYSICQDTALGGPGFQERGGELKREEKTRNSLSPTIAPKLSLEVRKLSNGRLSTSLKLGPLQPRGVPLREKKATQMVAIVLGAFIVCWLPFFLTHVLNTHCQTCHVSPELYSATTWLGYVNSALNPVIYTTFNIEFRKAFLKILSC

Compound	IC50 ([1]; hek293)	IC50 [2]	Ki [2]	IC50 ([3]; cho)	IC50 [4]	IC50 [5]	IC50 ([1]; read-out: IC50) [nM]	Ki ([1]; read-out: Ki) [nM]	IC50 ([3]; read-out: IC50) [nM]	Ki ([3]; read-out: Ki) [nM]	Ki ([1]; hek293)	Ki ([3]; cho)	Ki [4]	Ki [5]
O=C(O)CCNC(=O)c1ccc(/N=N/c2ccc(O)c(C(=O)O)c2)cc1 [BALSALAZIDE]	Not Active	Not Active	Not Active	Not Active	Not Active	Not Active	–	–	–	–	–	–	–	–
C[S+](C)[O-] [DIMETHYL SULFOXIDE]	Not Active	Not Active	Not Active	Not Active	Not Active	Not Active	–	–	–	–	–	–	–	–
O=C(c1ccccc1F)N1CCC(Cc2ccccc2)CC1	Not Active	Not Active	Not Active	Not Active	Not Active	Not Active	–	–	–	–	–	–	–	–
COc1cc(OC)c(C(=O)CCCN2CCCC2)c(OC)c1 [BUFLOMEDIL]	Not Active	Not Active	Not Active	Not Active	Not Active	Not Active	–	–	–	–	–	–	–	–
COC(=O)Nc1nc2cc(C(=O)c3ccc(F)cc3)ccc2[nH]1 [FLUBENDAZOLE]	Not Active	Not Active	Not Active	Not Active	Not Active	Not Active	–	–	–	–	–	–	–	–
COc1ccnc(C[S+]([O-])c2nc3ccc(OC(F)F)cc3[nH]2)c1OC (configuration not stated) [PANTOPRAZOLE]	Not Active	Not Active	Not Active	Not Active	Not Active	Not Active	–	–	–	–	–	–	–	–
CCc1ccc(CCOc2ccc(CC3SC(=O)NC3=O)cc2)nc1 (configuration not stated) [PIOGLITAZONE]	Not Active	Not Active	Not Active	Not Active	Not Active	Not Active	–	–	–	–	–	–	–	–
CC[C@H]1[C@@H]2C[C@H]3[C@@H]4N(C)c5ccccc5[C@]45C[C@@H]([C@@H]2[C@H]5O)N3[C@@H]1O [AJMALINE]	Not Active	Not Active	Not Active	Not Active	Not Active	Not Active	–	–	–	–	–	–	–	–
CNC1=Nc2ccc(Cl)cc2C(c2ccccc2)=[N+]([O-])C1 [CHLORDIAZEPOXIDE]	Not Active	Not Active	Not Active	Not Active	Not Active	Not Active	–	–	–	–	–	–	–	–
C[C@@H]1O[C@@H](O[C@H]2C[C@@H](O)[C@]3(CO)[C@H]4[C@H](O)C[C@]5(C)[C@@H](C6=CC(=O)OC6)CC[C@]5(O)[C@@H]4CC[C@]3(O)C2)[C@H](O)[C@H](O)[C@H]1O [OUABAIN]	Not Active	Not Active	Not Active	Not Active	Not Active	Not Active	–	–	–	–	–	–	–	–
Cc1cccc(C)c1NC(=O)C1CCCCN1C (configuration not stated) [MEPIVACAINE]	Not Active	Not Active	Not Active	Not Active	Not Active	Not Active	–	–	–	–	–	–	–	–
CC1=NN(c2ccccc2)C(=O)C1 [EDARAVONE]	Not Active	Not Active	Not Active	Not Active	Not Active	Not Active	–	–	–	–	–	–	–	–
CC(C)C[C@H]1C(=O)N2CCC[C@H]2[C@]2(O)O[C@](NC(=O)[C@@H]3C=C4c5cccc6[nH]cc(c56)C[C@H]4N(C)C3)(C(C)C)C(=O)N12 [ERGOCRYPTINE]	–	Not Active	Not Active	–	Not Active	Not Active	2500	1870	0.589	0.2	–	–	–	–
Cc1cc(O)cc(C)c1Cl [CHLOROXYLENOL]	Not Active	Not Active	Not Active	Not Active	Not Active	Not Active	–	–	–	–	–	–	–	–
CCOC(=O)c1ncn2c1CN(C)C(=O)c1cc(F)ccc1-2 [FLUMAZENIL]	Not Active	Not Active	Not Active	Not Active	Not Active	Not Active	–	–	–	–	–	–	–	–
COBALTOUS CHLORIDE	Not Active	Not Active	Not Active	Not Active	Not Active	Not Active	–	–	–	–	Not Active	Not Active	Not Active	Not Active
